Like-named read-outs stand apart in the source and are kept apart here.
Assays:
[1] = target: T1, ER-α (Homo sapiens, UniProt P03372); experiment: MELN cell luciferase assay (estrogen-responsive reporter in MCF-7 cells); format: cell-based
T1 construct: we transfected ER-α–positive breast cancer MCF-7 cells; endogenous in cells; host or cells: MELN (MCF-7 stably transfected with ERE-βGlob-Luc-SVNeo)
T1 sequence (P03372 1-595): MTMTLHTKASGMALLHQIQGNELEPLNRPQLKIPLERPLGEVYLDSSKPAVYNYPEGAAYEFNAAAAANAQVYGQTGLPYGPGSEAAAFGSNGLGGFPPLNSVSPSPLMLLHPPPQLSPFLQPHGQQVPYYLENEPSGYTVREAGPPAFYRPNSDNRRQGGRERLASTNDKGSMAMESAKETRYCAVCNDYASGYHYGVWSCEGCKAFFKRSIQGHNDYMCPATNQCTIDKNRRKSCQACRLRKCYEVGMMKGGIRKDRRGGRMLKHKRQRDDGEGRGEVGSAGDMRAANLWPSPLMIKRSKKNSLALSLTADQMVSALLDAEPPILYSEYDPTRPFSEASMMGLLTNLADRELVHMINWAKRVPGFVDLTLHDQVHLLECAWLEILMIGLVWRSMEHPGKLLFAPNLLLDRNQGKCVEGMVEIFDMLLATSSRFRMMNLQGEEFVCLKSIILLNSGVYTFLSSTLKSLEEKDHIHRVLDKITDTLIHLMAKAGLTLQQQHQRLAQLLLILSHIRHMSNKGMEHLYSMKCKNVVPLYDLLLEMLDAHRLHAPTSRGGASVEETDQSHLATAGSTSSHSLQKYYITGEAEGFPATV
Description: Selection of resistant clones by geneticin was performed at 1 mg/mL.
(§1) For strain cultures, cells were grown in phenol red containing Dulbecco’s modified Eagle medium, 1 g/L glucose, supplemented with 5% fetal calf serum (FCS), and 1% antibiotic (penicillin/streptomycin) in a 5% CO2 humidified atmosphere at 37°C.
Cells were seeded at a density of 5 × 10^4 cells/well in 96-well white opaque tissue culture plates (Becton Dickinson, Le Pont de Claix, France) in 150 μL test culture medium. Compounds to be tested were prepared 4× concentrated in the same medium and 50 μL was added per well 8 hr after seeding. Cells were incubated with compounds for 16 hr. Experiments were performed in quadruplicate and repeated twice. At the end of incubation, effector containing medium was removed and replaced by […], luciferin diffuses into the cell and produces a luminescent signal that is stable from 5 min on. […] The 96-well plate was then introduced in a microplate luminometer (Centro LB 960, Berthold Technologies), and intact living cell luminescence measured for 2 sec. Results are expressed as a percentage of maximum luciferase activity. […] GraphPad Software Inc., San Diego, CA, USA). […]

[2] = target: T2, recombinant ER-α (hER-αLBD triple mutant) (Homo sapiens, UniProt P03372, C381S/C417S/C530S); experiment: biochemical
T2 sequence (P03372 302-552 C381S/C417S/C530S): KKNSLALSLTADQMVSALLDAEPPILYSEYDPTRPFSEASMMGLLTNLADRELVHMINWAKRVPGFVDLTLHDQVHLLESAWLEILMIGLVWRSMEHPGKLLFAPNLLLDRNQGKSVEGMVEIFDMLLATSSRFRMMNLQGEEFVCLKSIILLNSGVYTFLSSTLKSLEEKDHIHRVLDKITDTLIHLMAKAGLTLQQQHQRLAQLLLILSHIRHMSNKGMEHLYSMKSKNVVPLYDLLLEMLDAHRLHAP

[3] = target: T2, recombinant ER-α (hER-αLBD triple mutant); conditions: for RBA: ratio of IC50 values of E2 to competitor, E2 set at 100
[4] = target: T1, ER-α; format: cell-based
Description: Ten nanomoles of recombinant ER-αwere immobilized on 500 μL Ni-NTA-agarose phase. […] After rolling for 16 hr, flow-through and three 500-μL washings with WB were collected. Liganded receptor was then eluted with 3 × 500 μL EB, and eluate was heated at 65°C for 30 min in order to denature recombinant ER-α. Collected fractions were diluted 10-fold in culture medium before their relative estrogenic activity was evaluated with MELN reporter cells.
Flow-through (1.5 mL), washing, and elution fractions (500 μL) were collected. Precolumn and flow-through fractions were diluted 10-fold in culture medium before their relative activities were evaluated with MELN and HAhLP reporter cells. Washing and elution fractions were diluted 30-fold in culture medium to take into account the fact that they were 3× concentrated.

[5] = target: T3, recombinant ER-α (Homo sapiens, UniProt P03372, C381S/C417S/C530S); format: cell-based; conditions: compound at concentration giving about 80% MELN transactivation, 1-100 nM recombinant ER-α
T3 construct: hER-αLBD(Lys302 → Pro552); made in house; host or cells: Escherichia coli BL21 DE3
T3 sequence (P03372 302-552 C381S/C417S/C530S): T2 sequence (P03372 302-552 C381S/C417S/C530S)
Description: MELN cells were seeded in 96-well white opaque tissue culture plates as described above. In separate tubes, estrogenic compounds at nonsaturating concentration mediating about 80% MELN cell activity or 0.1% methanol extract for environmental samples, were prepared 4×-concentrated and preincubated with the same volume of 4×-concentrated purified recombinant ER-α(1–100 nM final concentration) in test culture medium at 4°C for 16 hr. Medium from MELN cell culture plates was then removed and replaced by 100 μL of test culture medium supplemented with the same volume of preincubation medium. After 6 hr incubation at 37°C, luciferase activity was determined.

[6] = target: T4, AhR (Homo sapiens, UniProt P35869); experiment: HAhLP cell luciferase assay (CYP1A1-Luc reporter in HeLa cells); format: cell-based; conditions: read-out: EC50 value, induction of luciferase expression
T4 construct: The dioxin reporter cell line was obtained by transfecting HeLa cells with CYP1A1-Luc and pSG5-puro plasmids; endogenous in cells; host or cells: HAhLP (HeLa stably transfected with CYP1A1-Luc and pSG5-puro)
T4 sequence (P35869 11-848): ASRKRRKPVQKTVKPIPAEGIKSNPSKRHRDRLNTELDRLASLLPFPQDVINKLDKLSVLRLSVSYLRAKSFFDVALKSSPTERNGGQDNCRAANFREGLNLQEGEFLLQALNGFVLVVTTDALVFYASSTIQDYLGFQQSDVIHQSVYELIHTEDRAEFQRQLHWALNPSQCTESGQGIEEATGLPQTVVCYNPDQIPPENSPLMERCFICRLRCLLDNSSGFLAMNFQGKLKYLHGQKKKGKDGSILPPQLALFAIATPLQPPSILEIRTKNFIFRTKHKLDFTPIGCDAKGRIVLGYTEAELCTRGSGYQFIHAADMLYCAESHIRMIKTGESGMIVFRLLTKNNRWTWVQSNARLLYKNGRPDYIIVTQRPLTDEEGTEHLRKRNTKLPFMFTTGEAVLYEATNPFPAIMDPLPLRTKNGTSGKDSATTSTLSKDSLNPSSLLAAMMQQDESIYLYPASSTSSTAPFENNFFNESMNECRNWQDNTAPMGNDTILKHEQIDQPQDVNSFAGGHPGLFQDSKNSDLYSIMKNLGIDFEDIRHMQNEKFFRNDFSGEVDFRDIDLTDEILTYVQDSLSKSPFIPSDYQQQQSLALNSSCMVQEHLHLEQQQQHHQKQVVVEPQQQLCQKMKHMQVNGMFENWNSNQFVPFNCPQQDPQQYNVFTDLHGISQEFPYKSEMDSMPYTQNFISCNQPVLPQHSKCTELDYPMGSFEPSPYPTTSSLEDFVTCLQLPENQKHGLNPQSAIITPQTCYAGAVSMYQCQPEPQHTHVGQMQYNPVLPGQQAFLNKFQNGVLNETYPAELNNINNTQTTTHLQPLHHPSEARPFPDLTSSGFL
Description: The dioxin reporter cell line was obtained by transfecting HeLa cells with CYP1A1-Luc and pSG5-puro plasmids. Selection of resistant clones by puromycin was performed at 0.5 μg/mL. The most dioxin-responsive clone was denominated HAhLP 1.15. […].
as §1
Cells were seeded at a density of 5 × 10^4 cells/well in 96-well white opaque tissue culture plates (Becton Dickinson, Le Pont de Claix, France) in 150 μL test culture medium. Compounds to be tested were prepared 4× concentrated in the same medium and 50 μL was added per well 8 hr after seeding. Cells were incubated with compounds for 16 hr. Experiments were performed in quadruplicate and repeated twice. […] The 96-well plate was then introduced in a microplate luminometer (Centro LB 960, Berthold Technologies), and intact living cell luminescence measured for 2 sec. Results are expressed as a percentage of maximum luciferase activity. […]
Sediment and water methanol extracts were applied to MELN and HAhLP cells at 0.3% (vol/vol) maximal concentration in test culture medium, and luciferase transactivation was measured.

[7] = half-maximal induction in MELN cell line, 16 hr, read-out: EC50 ± SE
[8] = ratio of EC50 values of E2 to compound, E2 set at 100
[9] = compound applied at 3 nM, 10 nM E2 = 100
[10] = compound applied at 300 nM, 10 nM E2 = 100

In the case of ClC(Cl)=C(c1ccc(Cl)cc1)c1ccccc1Cl [2,4′-DDE], the EC50 [1, 7] is reported as 2.74 µM and the RTP [1, 8] is reported as 0.00063.
Work on ClC(Cl)=C(c1ccc(Cl)cc1)c1ccc(Cl)cc1 [4,4′-DDE] yielded an EC50 [1, 7] of 25.6 µM and an RTP [1, 8] of 0.00007.
In the case of CCCCCCCCCc1ccc(O)cc1 [4-NP, 4n-nonylphenol], the RTP [1] is reported as 0.00016, the EC50 [1, 7] is reported as 11 µM and the IC50 [2] is reported as 5.6 µM. The RBA [3] was 0.11.
In the case of CC(C)(c1ccc(O)cc1)c1ccc(O)cc1 [BPA, bisphenol A], the “Induction of luciferase activity, Elution” value (shortened to “Induction … Elution”) [4] is reported as 70 ± 2%, the “Induction of luciferase activity, Flow-through” value (from here on “Induction … Flow-through”) [4] is reported as 17 ± 2% and the “Induction of luciferase activity, Precolumn” value (from here on “Induction … Precolumn”) [4] is reported as 70 ± 6%. The “Induction of luciferase activity, Washing” value (shortened to “Induction … Washing”) [4] was 16 ± 2%.
With O=S1(=O)OC(c2ccc(O)cc2)(c2ccc(O)cc2)c2ccccc21 [Phenol red, phenol red] the RTP [1] was 0.00005, the EC50 [1, 7] was 36.9 µM and the “Induction … Elution” value [4] was 40 ± 4%. The “Induction … Flow-through” value [4] was 16 ± 2%, the “Induction … Precolumn” value [4] was 36 ± 5% and the “Induction … Washing” value [4] was 15 ± 3%.
In the case of C[C@H]1CCCC(=O)CCC/C=C/c2cc(O)cc(O)c2C(=O)O1 [Zearalenone, zearalenone], the EC50 [1] is reported as 0.000313 µM, the RTP [1, 8] is reported as 5.62 and the “capture by recombinant ER-α / inhibition of transactivation” value [5] is reported as “captured less efficiently than was E2”.
In the case of Clc1cc2c(cc1Cl)Oc1cc(Cl)c(Cl)cc1O2 [dioxin], the “activation of MELN cells” value ([1]; MELN cells) is reported as “able to partially activate MELN cells” and the EC50 [6] is reported as 0.0002 µM.
For C[C@H]1CCC[C@H](O)CCCCCc2cc(O)cc(O)c2C(=O)O1 [α -Zearalanol, α-zearalanol], the EC50 [1, 7] was 0.000135 µM, the RTP [1, 8] was 13.0 and the “Induction … Elution” value [4, 9] was 82 ± 6%. The “Induction … Flow-through” value [4, 9] was 17 ± 2%, the “Induction … Precolumn” value [4, 9] was 88 ± 2% and the “Induction … Washing” value [4, 9] was 16 ± 1%.
For nonylphenol mixture [NPm], the EC50 [1, 7] was 0.339 µM, the RTP [1, 8] was 0.0051 and the “capture by recombinant ER-α / inhibition of transactivation” value [5] was “only a slight or no inhibition”. For the same molecule, the “Induction … Elution” value [4, 10] was 56 ± 2%, the “Induction … Flow-through” value [4, 10] was 17 ± 1% and the “Induction … Precolumn” value [4, 10] was 57 ± 4%. The “Induction … Washing” value [4, 10] was 16 ± 2%, the RBA [3] was 0.32 and the IC50 ([3]; read-out: IC50 ± SE, 0.75 pmol recombinant ER-α, 2 nM [3H]-E2, 500 μL, 4°C 16 hr) was 1.86 µM.

Reference: PMC1253752, “Binding of Estrogenic Compounds to Recombinant Estrogen Receptor-α: Application to Environmental Analysis” (Environmental Health Perspectives, 2004)
